Results published in US7888464B2, “Hepatitis C virus inhibitors” (Bristol-Myers Squibb Company, priority 2006, dated 2011).

Tests used:
[1] = biological target: T1, HCV NS3/4A protease complex, BMS strain (genotype 1a) (UniProt P27958, species not given/STRAIN_BMS); test: FRET peptide assay to monitor HCV NS3/4A proteolytic activity (BMS strain); type: biochemical; settings: BMS strain; read-out: IC50 against the NS3/4A BMS strain in the enzyme assay
T1 construct: "DNA encoding the recombinant HCV NS3/4A protease complex (amino acids 1027 to 1711) for these strains" (said of H77 and J4L6S, not expressly of BMS); given for the H77/J4L6S constructs only
Excerpt: HCV NS3 protease complexes, derived from the BMS strain, H77 strain or J4L6S strain, were generated, as described below. These purified recombinant proteins were generated for use in a homogeneous assay (see below) to provide an indication of how effective compounds of the present disclosure would be in inhibiting HCV NS3 proteolytic activity.
Serum from an HCV-infected patient was obtained from Dr. T. Wright, San Francisco Hospital. An engineered full-length cDNA (compliment deoxyribonucleic acid) template of the HCV genome (BMS strain) was constructed from DNA fragments obtained by reverse transcription-PCR(RT-PCR) of serum RNA (ribonucleic acid) and using primers selected on the basis of homology between other genotype la strains. From the determination of the entire genome sequence, a genotype la was assigned to the HCV isolate according to the classification of Simmonds et al. (See P Simmonds, K A Rose, S Graham, S W Chan, F McOmish, B C Dow, E A Follett, P L Yap and H Marsden, J. Clin. Microbiol., 31(6), 1493-1503 (1993)). […] The infectious clones, H77 (1a genotype) and J4L6S (1b genotype) were obtained from R. Purcell (NIH) and the sequences are published in Genbank (AAB67036, see Yanagi, M., Purcell, R. H., Emerson, S. U. and Bukh, J. Proc. Natl. Acad. Sci. U.S.A. 94(16), 8738-8743 (1997); AF054247, see Yanagi, M., St Claire, M., Shapiro, M., Emerson, S. U., Purcell, R. H. and Bukh, J, Virology 244 (1), 161-172. (1998)).
The H77 and J4L6S strains were used for production of recombinant NS3/4A protease complexes. DNA encoding the recombinant HCV NS3/4A protease complex (amino acids 1027 to 1711) for these strains were manipulated as described by P. Gallinari et al. (see Gallinari P, Paolini C, Brennan D, Nardi C, Steinkuhler C, De Francesco R. Biochemistry. 38(17):5620-32, (1999)). Briefly, a three-lysine solubilizing tail was added at the 3′-end of the NS4A coding region. The cysteine in the P1 position of the NS4A-NS4B cleavage site (amino acid 1711) was changed to a glycine to avoid the proteolytic cleavage of the lysine tag. Furthermore, a cysteine to serine mutation was introduced by PCR at amino acid position 1454 to prevent the autolytic cleavage in the NS3 helicase domain. The variant DNA fragment was cloned in the pET21b bacterial expression vector (Novagen) and the NS3/4A complex was expressed in Escherichia. coli strain BL21 (DE3) (Invitrogen) following the protocol described by P. Gallinari et al. (see Gallinari P, Brennan D, Nardi C, Brunetti M, Tomei L, Steinkuhler C, De Francesco R., J. Virol. 72(8):6758-69 (1998)) with modifications. Briefly, the NS3/4A protease complex expression was induced with 0.5 millimolar (mM) Isopropyl β-D-1-thiogalactopyranoside (IPTG) for 22 hours (h) at 20° C. A typical fermentation (1 Liter (L)) yielded approximately 10 grams (g) of wet cell paste. The cells were resuspended in lysis buffer (10 mL/g) consisting of 25 mM N-(2-Hydroxyethyl)piperazine-N′-(2-Ethane Sulfonic acid) (HEPES), pH 7.5, 20% glycerol, 500 mM Sodium Chloride (NaCl), 0.5% Triton X-100, 1 microgram/milliliter (“μg/mL”) lysozyme, 5 mM Magnesium Chloride (MgCl2), 1 μg/ml DnaseI, 5 mM β-Mercaptoethanol (βME), Protease inhibitor-Ethylenediamine Tetraacetic acid (EDTA) free (Roche), homogenized and incubated for 20 minutes (min) at 4° C. The homogenate was sonicated and clarified by ultra-centrifugation at 235000 g for 1 hour (h) at 4° C. Imidazole was added to the supernatant to a final concentration of 15 mM and the pH adjusted to 8.0. The crude protein extract was loaded on a Nickel-Nitrilotriacetic acid (Ni-NTA) column pre-equilibrated with buffer B (25 mM HEPES, pH 8.0, 20% glycerol, 500 mM NaCl, 0.5% Triton X-100, 15 mM imidazole, 5 mM βME). The sample was loaded at a flow rate of 1 mL/min. The column was washed with 15 column volumes of buffer C (same as buffer B except with 0.2% Triton X-100). The protein was eluted with 5 column volumes of buffer D (same as buffer C except with 200 mM Imidazole). […]

[2] = biological target: T2, porcine pancreatic elastase (PPE) (Sus scrofa, UniProt P00772); test: Specificity assay, pancreatic elastase; type: biochemical; settings: read-out: PPE activity in the specificity assays
T2 construct: purchased Sigma, EMDbiosciences
Procedure: The specificities of compounds of the present disclosure were determined against a variety of serine proteases: human neutrophil elastase (HNE), porcine pancreatic elastase (PPE) and human pancreatic chymotrypsin and one cysteine protease: human liver cathepsin B. In all cases a 96-well plate format protocol using a fluorometric Amino-Methyl-Coumarin (AMC) substrate specific for each enzyme was used as described previously (PCT Patent Application No. WO 00/09543) with some modifications to the serine protease assays. All enzymes were purchased from Sigma, EMDbiosciences while the substrates were from Bachem, Sigma and EMDbiosciences.
Compound concentrations varied from 100 to 0.4 μM depending on their potency. The enzyme assays were each initiated by addition of substrate to enzyme-inhibitor pre-incubated for 10 min at room temperature and hydrolysis to 15% conversion as measured on cytofluor.
50 mM Tris-HCl, pH 8.0, 50 mM NaCl, 0.1 mM EDTA, 3% DMSO, 0.02% Tween-20, 5 μM succ-AAPV-AMC and 20 nM HNE or 8 nM PPE;
The percentage of inhibition was calculated using the formula: [1−((UVinh−UVblank)/(UVctl−UVblank))]×100
A non-linear curve fit was applied to the inhibition-concentration data, and the 50% effective concentration (IC50) was calculated by the use of Excel XLfit software.

T2 sequence (P00772 27-266): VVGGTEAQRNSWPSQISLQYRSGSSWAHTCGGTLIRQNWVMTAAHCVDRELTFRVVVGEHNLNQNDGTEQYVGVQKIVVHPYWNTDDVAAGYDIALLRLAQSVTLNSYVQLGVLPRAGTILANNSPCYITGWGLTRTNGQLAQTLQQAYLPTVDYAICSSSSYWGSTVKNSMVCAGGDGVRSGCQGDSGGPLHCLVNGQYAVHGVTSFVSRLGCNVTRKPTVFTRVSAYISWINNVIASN
T1 sequence (P27958 1027-1657, stated change not applied, one chain of several): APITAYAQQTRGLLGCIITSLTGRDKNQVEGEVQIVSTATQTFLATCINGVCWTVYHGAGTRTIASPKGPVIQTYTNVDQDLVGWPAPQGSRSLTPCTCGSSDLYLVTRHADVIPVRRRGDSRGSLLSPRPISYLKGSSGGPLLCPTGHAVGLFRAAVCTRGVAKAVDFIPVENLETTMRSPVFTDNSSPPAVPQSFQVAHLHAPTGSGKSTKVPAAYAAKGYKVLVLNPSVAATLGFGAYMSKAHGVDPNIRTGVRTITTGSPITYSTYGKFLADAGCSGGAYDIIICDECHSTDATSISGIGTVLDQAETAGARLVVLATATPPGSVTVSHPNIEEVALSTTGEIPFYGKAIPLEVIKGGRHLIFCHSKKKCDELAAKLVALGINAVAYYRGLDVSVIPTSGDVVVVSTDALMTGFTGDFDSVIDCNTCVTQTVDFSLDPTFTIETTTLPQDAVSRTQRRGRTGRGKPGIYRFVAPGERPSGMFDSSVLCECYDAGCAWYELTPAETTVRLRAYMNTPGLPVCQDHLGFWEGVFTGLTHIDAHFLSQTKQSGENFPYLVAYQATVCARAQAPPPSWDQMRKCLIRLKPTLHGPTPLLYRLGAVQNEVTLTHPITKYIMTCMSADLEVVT

Question: For `C=C[C@@H]1C[C@]1(NC(=O)[C@@H]1C[C@@](O)(c2ccc(-c3ccccc3)cc2)CN1C(=O)[C@@H](NC(=O)OC(C)(C)C)C(C)(C)C)C(=O)NS(=O)(=O)C1CC1` [Compound 3], which IC50 [1] is on record?
Answer: The IC50 was 4.4 nM.

Question: And the IC50 [2]?
Answer: The IC50 was over 100000 nM.
